Laboratory results published in ChEMBL document CHEMBL5356933, “Dual functional therapeutics: mitigating bacterial infection and associated inflammation” (RSC Med Chem, 2023).
≈ marks a conversion by molar mass, not a printed value. Values belong to the compound of their own block, whether it stands above or below them. Residues, ends and D or L forms follow the SMILES beside them.

Columns and labels:
Escherichia coli [1] = assay: Antibacterial activity against Escherichia coli assessed as reduction in bacterial growth by broth micro-dilution method; format: functional
Streptococcus pneumoniae = assay: Antibacterial activity against Streptococcus pneumoniae ATCC 49619 assessed as reduction in bacterial growth; format: functional
Staphylococcus aureus [2] = assay: Antibacterial activity against methicillin-resistant Staphylococcus aureus ATCC 33591 assessed as reduction in bacterial growth incubated for 24 hrs by agar plate method; format: functional
Escherichia coli [3] = assay: Antimicrobial activity against Escherichia coli ATCC 25922 assessed as reduction in microbial growth incubated for 24 hrs by CLSI based broth microdilution method; format: functional
J774.A1 [4] = assay: Antiinflammatory activity against mouse J774.A1 cells assessed as inhibition of LPS-stimulated TNFalpha release measured at 10 uM after 30 mins by ELISA relative to control; format: functional; design: scale not given: the % may be the effect or the level left; conditions: 0.5 h
J774.A1 [5] = assay: Antiinflammatory activity in mouse J774.A1 cells assessed as decrease in LPS-induced IL-6 secretion at 20 uM preincubated for 30 mins followed by LPS stimulation and measured after 24 hrs by ELISA; format: functional; design: scale not given: the % may be the effect or the level left; conditions: time 1470 min, 24.5 h
Acinetobacter baumannii = assay: Antibacterial activity against Acinetobacter baumannii ATCC 19606 assessed as bacterial growth inhibition at 32 ug/ml measured after 16 hrs by broth microdilution method; format: functional; conditions: dose 32 µg/ml
Escherichia coli [6] = assay: Antibacterial activity against Escherichia coli ATCC 25922 assessed as inhibition of bacterial growth incubated for 16 to 18 hrs by broth microdilution method; format: functional; conditions: time 16-18 hrs
[7] = Hemolytic activity in human RBC assessed as hemolysis up to 100 microg/ml measured after 1 hr; format: toxicity, cell-based, Erythrocyte; conditions: red blood cells (erythrocytes), dose < 100 µg/ml
[8] = tested on: Staphylococcus epidermidis; assay: Antibacterial activity against Staphylococcus epidermidis assessed as reduction in microbial growth incubated for 24 hrs by broth micro-dilution method; format: functional
Staphylococcus aureus [9] = assay: Antibacterial activity against Staphylococcus aureus ATCC 33591 assessed as reduction in bacterial growth; format: functional
RAW264.7 [10] = assay: Antiinflammatory activity in LPS-induced mouse RAW264.7 cells assessed as reduction in TNF alpha level at 20 ug/ml measured after 72 hrs by ELISA assay relative to control; format: functional; design: scale not given: the % may be the effect or the level left; conditions: dose 20 µg/ml
RAW264.7 [11] = assay: Anti-inflammatory activity in mouse RAW264.7 cells assessed as reduction in LPS-induced IL-6 mRNA expression at 20 ug/ml incubated for 24 hrs by qPCR analysis relative to control; format: functional; design: scale not given: the % may be the effect or the level left; conditions: dose 20 µg/ml
Pseudomonas aeruginosa = assay: Antibacterial activity against multi-drug resistant Pseudomonas aeruginosa assessed as reduction in bacterial growth by broth microdilution method; format: functional
RAW264.7 [12] = assay: Anti-inflammatory activity against mouse RAW264.7 cells assessed as inhibition of LPS-induced NO production at 20 ug/ml relative to control; format: functional; design: scale not given: the % may be the effect or the level left; conditions: dose 20 µg/ml
RAW264.7 [13] = assay: Immunosuppressive activity in LPS-treated mouse RAW264.7 cells assessed as inhibition of MCP-1 level at 20 ug/ml incubated for 24 hrs by ELISA analysis relative to control; format: functional; design: scale not given: the % may be the effect or the level left; conditions: dose 20 µg/ml
Escherichia coli [14] = assay: Antibacterial activity against Escherichia coli ATCC 25922 assessed as reduction in bacterial growth by broth microdilution method; format: functional
RAW264.7 [15] = assay: Anti-inflammatory activity against mouse RAW264.7 cells assessed as inhibition of LPS-induced NO production at 10 uM incubated for 24 hrs by Griess reagent based analysis relative to control; format: functional; design: scale not given: the % may be the effect or the level left
RAW264.7 [16] = assay: Antiinflammatory activity against LPS-stimulated mouse RAW264.7 cells assessed as inhibition of TNFalpha production at 10 uM preincubated for 27 hrs followed by LPS stimulation and measured after 12 hrs by ELISA analysis relative to control; format: functional; design: scale not given: the % may be the effect or the level left; conditions: time 39 hrs
Staphylococcus aureus [17] = assay: Antibacterial activity against Staphylococcus aureus clinical isolate assessed as reduction in cell growth incubated for 48 hrs by broth micro-dilution method; format: functional
Klebsiella pneumoniae = assay: Antibacterial activity against Klebsiella pneumoniae clinical isolate assessed as reduction in cell growth incubated for 48 hrs by broth micro-dilution method; format: functional
Enterococcus faecium = assay: Antibacterial activity against Enterococcus faecium clinical isolate assessed as reduction in cell growth incubated for 48 hrs by broth micro-dilution method; format: functional
RAW264.7 [18] = assay: Antiinflammatory activity against LPS-induced mouse RAW264.7 cells assessed as reduction in IL-6 mRNA expression incubated for 24 hrs by RT-PCR analysis relative to control; format: functional; design: scale not given: the % may be the effect or the level left
[19] = Acute toxicity in Kunming mouse assessed as survival rate at 160 ug/kg, ip administered once daily for 14 days relative to control; format: organism-based; conditions: in vivo, 0.16 mg/kg, time 14 day, read-out: Activity
RAW264.7 [20] = assay: Anti-inflammatory activity against mouse RAW264.7 cells assessed as reduction in LPS-induced IL-6 mRNA production relative to control; format: functional; design: scale not given: the % may be the effect or the level left
[21] = Acute toxicity in Kunming mouse assessed as survival rate at 80 ug/kg, ip administered once daily for 14 days relative to control; format: organism-based; conditions: in vivo, 0.08 mg/kg, time 14 day, read-out: Activity
[22] = Acute toxicity in Kunming mouse assessed as survival rate at 40 ug/kg, ip administered once daily for 14 days relative to control; format: organism-based; conditions: in vivo, 0.04 mg/kg, time 14 day, read-out: Activity
RAW264.7 [23] = assay: Antiinflammatory activity against mouse RAW264.7 cells assessed as reduction in TNF alpha production incubated for 24 hrs by ELISA method relative to control; format: functional; design: scale not given: the % may be the effect or the level left
RAW264.7 [24] = assay: Anti-inflammatory activity against mouse RAW264.7 cells assessed as reduction in LPS-induced TNFalpha production relative to control; format: functional; design: scale not given: the % may be the effect or the level left

SMILES: NCCCOc1cc(OCCCN)cc(-c2cc(-c3ccccc3)cc(-c3cc(OCCCN)cc(OCCCN)c3)c2)c1
MIC (Escherichia coli [1]): 3.13 µg/mL (≈ 5.23 µM)

SMILES: CCCCCCN(Cc1ccc(-c2ccc(CN(CCCCCC)C(=O)[C@@H](N)CCCCN)cc2)cc1)C(=O)[C@@H](N)CCCCN
MIC (Staphylococcus aureus [2]): 3.1 µg/mL (≈ 4.87 µM)

SMILES: CC[C@H](C)[C@H](NC(=O)[C@H](Cc1cnc[nH]1)NC(=O)[C@H](CO)NC(=O)[C@@H](NC(=O)[C@@H](NC(=O)[C@@H](NC(=O)[C@@H](NC(=O)[C@H](CCCNC(=N)N)NC(=O)[C@H](CC(C)C)NC(=O)[C@H](CCCCN)NC(=O)[C@H](CCC(=O)O)NC(=O)[C@H](CCCCN)NC(=O)[C@H](CC(C)C)NC(=O)[C@H](CCCCN)NC(=O)[C@H](CS)NC(=O)[C@H](CC(C)C)NC(=O)[C@H](Cc1ccccc1)NC(=O)[C@H](CC(N)=O)NC(=O)[C@H](CS)NC(=O)[C@@H](N)CCCCN)[C@@H](C)O)C(C)C)[C@@H](C)CC)[C@@H](C)O)C(=O)N[C@@H](CC(=O)O)C(=O)N[C@@H](CCCCN)C(=O)N[C@H](C(=O)N[C@@H](CC(C)C)C(=O)N[C@@H](CCCNC(=N)N)C(=O)N1CCC[C@H]1C(=O)N[C@@H](CCC(N)=O)C(=O)NCC(N)=O)C(C)C (H-KCNFLCKLKEKLRTVITSHIDKVLRPQG-NH2)
Activity (RAW264.7 [10]): 60%
Activity (RAW264.7 [11]): 86%
MIC (Pseudomonas aeruginosa): 37.5 µg/mL (≈ 11.5 µM)
Activity (RAW264.7 [12]): 70%
Activity (RAW264.7 [13]): 68%
MIC (Escherichia coli [14]): 4.69 µg/mL (≈ 1.44 µM)

SMILES: CC(C)C[C@H](NC(=O)[C@H](Cc1c[nH]c2ccccc12)NC(=O)[C@H](CCCCN)NC(=O)[C@H](CCCCN)NC(=O)[C@H](Cc1c[nH]c2ccccc12)NC(=O)[C@H](CCCCN)NC(=O)[C@H](CCCCN)NC(=O)[C@H](Cc1c[nH]c2ccccc12)NC(=O)[C@H](CC(C)C)NC(=O)[C@@H](N)CCCCN)C(=O)N[C@@H](CCCCN)C(N)=O (H-KLWKKWKKWLK-NH2)
Activity (RAW264.7 [15]): 50%

SMILES: CC[C@H](C)[C@H](NC(=O)[C@H](CCCNC(=N)N)NC(=O)[C@H](CCCCN)NC(=O)[C@@H](NC(=O)[C@@H](NC(=O)[C@H](CCCNC(=N)N)NC(=O)[C@@H](N)CCCCN)[C@@H](C)CC)C(C)C)C(=O)N[C@@H](CCCCN)C(=O)N[C@@H](CCCCN)C(=O)N[C@@H](Cc1c[nH]c2ccccc12)C(=O)N[C@@H](CC(C)C)C(=O)N[C@@H](CCCNC(=N)N)C(N)=O (H-KRIVKRIKKWLR-NH2)
Activity (RAW264.7 [16]): 74.2%

SMILES: CC(C)C[C@H](NC(=O)CNC(=O)[C@H](Cc1ccccc1)NC(=O)[C@H](CCCNC(=N)N)NC(=O)[C@H](CCCNC(=N)N)NC(=O)CNC(=O)[C@H](Cc1cnc[nH]1)NC(=O)[C@H](CCCNC(=N)N)NC(=O)CNC(=O)[C@@H](NC(=O)[C@H](C)NC(=O)[C@@H](N)CO)C(C)C)C(=O)N[C@@H](CCCNC(=N)N)C(=O)N[C@@H](CCCCN)C(=O)N[C@@H](Cc1cnc[nH]1)C(=O)N[C@@H](CCCNC(=N)N)C(=O)N[C@@H](CCCCN)C(=O)N[C@@H](Cc1cnc[nH]1)C(=O)O (H-SAVGRHGRRFGLRKHRKH-OH)
Activity (RAW264.7 [18]): 46%
survival at 336 h [19]: 75%
Activity (RAW264.7 [20]): >50%
survival at 336 h [21]: 70%
survival at 336 h [22]: 10%
Activity (RAW264.7 [23]): 75%
Activity (RAW264.7 [24]): >50%

Second part, led by results:

MIC (Streptococcus pneumoniae): 4.1 µM (≈ 1.75 µg/mL)
SMILES: CCCCCCCCCCN(Cc1cccc2ccccc12)C(=O)[C@@H](N)CCCCN

MIC (Escherichia coli [3]): 1 µM
SMILES: CCCCCCCCCCCCCCCC(=O)N(CC(N)=O)C[C@H](CCCCN)NC(=O)N1C[C@H](Cc2ccccc2)NC(=O)CN(C(=O)CCCN)C[C@H](Cc2ccccc2)NC(=O)CN(C(=O)CCCN)C[C@H](Cc2ccccc2)NC(=O)CN(C(=O)CCCN)C[C@H](Cc2ccccc2)NC(=O)CCC1=O

MIC (Acinetobacter baumannii): 2 µM (≈ 3.73 µg/mL)
SMILES: CC[C@H](C)[C@@H](NC(=O)[C@@H](CCCNC(=N)N)NC(=O)[C@@H](CCCNC(=N)N)NC(=O)[C@@H](CC(C)C)NC(=O)[C@@H](Cc1c[nH]c2ccccc12)NC(=O)[C@@H](C)NC(=O)[C@@H](CCCCN)NC(=O)[C@H](NC(=O)[C@@H](CCCNC(=N)N)NC(=O)[C@@H](CCCNC(=N)N)NC(=O)[C@@H](CC(C)C)NC(=O)[C@H](N)Cc1c[nH]c2ccccc12)[C@@H](C)CC)C(=O)N[C@H](CCCCN)C(=O)N[C@H](C)C(N)=O
Activity (J774.A1 [4]): 64.7%
Activity (J774.A1 [5]): 96.4%

MIC (Escherichia coli [6]): 0.9 µg/mL
SMILES: CCOC(=O)[C@H](Cc1ccccc1)NC(=O)C[N+](C)(C)CCCCCCCCCCCC[N+](C)(C)CC(=O)N[C@H](Cc1ccccc1)C(=O)OCC
HC50 at 1 h [7]: 758 µg/mL

MIC [8]: 0.6 µM
MIC (Staphylococcus aureus [9]): 2.4 µM (≈ 3.86 µg/mL)
SMILES: CCCCCCCCCCCCCCCC(=O)N(CCNC(=O)CN1C[C@H](Cc2ccccc2)NC(=O)[C@H](CCCCN)N(C(=O)CCc2ccccc2)CCNC(=O)[C@H](CCCCN)N(C(=O)CCc2ccccc2)CCNC(=O)[C@H](CCCCN)N(C(=O)CCc2ccccc2)CCNC(=O)CCC1=O)[C@@H](CCCCN)C(N)=O

MIC (Staphylococcus aureus [17]): 5 µM (≈ 11.3 µg/mL)
MIC (Klebsiella pneumoniae): 5 µM (≈ 11.3 µg/mL)
MIC (Enterococcus faecium): 5 µM (≈ 11.3 µg/mL)
SMILES: CC[C@H](C)[C@H](NC(=O)[C@H](Cc1c[nH]c2ccccc12)NC(=O)[C@H](CCCNC(=N)N)NC(=O)[C@H](CCC(N)=O)NC(=O)[C@@H](NC(=O)[C@H](Cc1c[nH]c2ccccc12)NC(=O)[C@H](CCCNC(=N)N)NC(=O)[C@@H](N)CCCNC(=N)N)C(C)C)C(=O)N[C@@H](CCCNC(=N)N)C(=O)N[C@@H](CCCNC(=N)N)C(=O)N[C@@H](Cc1c[nH]c2ccccc12)C(=O)N[C@@H](CCCNC(=N)N)C(=O)N[C@@H](CCCCN)C(=O)N[C@@H](Cc1c[nH]c2ccccc12)C(=O)N[C@H](C(=O)O)C(C)C (H-RRWVQRWIRRWRKWV-OH)
